Values of other authors as cited in PMC139967 (BMC Biochemistry, 2002).

Test system: calmodulin

KAHKAATKIQASFRGHITRKKLKC [NM]
effect of high ionic strength on calmodulin binding: reduced by high ionic strength
